# Ends that are not written are not given here. * marks the point of attachment. 5FAM = O=C1OC2(c3ccc(O)cc3Oc3cc(O)ccc32)c2ccc(C(=O)*)cc21
# Tests used:
# hA5 (human S100A5) [1] = target: T1, hA5 (human S100A5) (Homo sapiens, UniProt P33763); experiment: Fluorescence polarization, displacement of 5FAM probe peptide; assay type: binding; details: displacement of 5FAM-labelled probe, 50 mM TES, 100 mM NaCl, 0.01% Tween-20, pH 7.4, 2.4-4.2 µM protein with equal probe, technical triplicate, corrected for probe
# T1 construct: His tag with TEV protease cleavage site (N, cleaved yes); made in house; host or cells: Rosetta E. coli (DE3) pLysS
# T1 sequence (P33763 1-92): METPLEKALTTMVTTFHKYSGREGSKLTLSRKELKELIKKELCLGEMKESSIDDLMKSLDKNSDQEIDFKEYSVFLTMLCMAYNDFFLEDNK
# Source text: (§1) To mimic the phage display experiment, we measured binding by displacement of a fluorescently labeled probe peptide. For our probe, we used the competitor peptide from the phage display experiment with the addition of an N-terminal 5-FAM fluorophore (fig. 3A). […] We could then measure fluorescence polarization of the probe peptide as a function of increasing concentrations of unlabeled peptide. A peptide that binds at the same site as the probe will displace the probe and thereby change the fluorescence polarization.
# (§2) We did the fluorescence polarization experiments in 50 mM TES, 100 mM NaCl, and 0.01% Tween-20, pH 7.4, thus matching the phage display experimental buffer. We ordered all nine test peptides and the probe peptide in milligram quantities at 95% purity (Genscript). For the probe peptide, we used “5FAM-[…],” where 5FAM indicates an N-terminally linked 5-carboxyfluorescein moiety. […] The only exception was […], which we dissolved in ddH2O .
# (§3) We measured fluorescence anisotropy using a SpectraMax i3 plate reader (Molecular Devices) with 96-well black plates (Corning). Prior to reading each plate, we shook for 5 s and then acquired with 500 ms integration time. Prior to the set of experiments, we optimized detector height and calibrated the plate’s xy position to maximize signal. We then kept this calibration throughout the set of experiments. For each experiment, we recorded both vertical (vv) and horizontal (vh) emission channels and then converted to arbitrary polarization units by: (5) R=vv−Gvh/vv+2Gvh with G set to 1.0. Titrations were done by serial dilution through conditions on individual plates, followed by measurement of all wells. We did all measurements in technical triplicate. We used custom software to programmatically remove technical replicate outliers.
# (§4) For our production experiments, we added increasing amounts of competitor peptide to wells with between 2.4 and 4.2 µM protein (monomer). Each well also contained probe peptide at the same concentration as the protein. We selected these concentrations to maximize the amount of signal change upon addition of competitor peptide KD,probe . We calculated the expected signal change by: (7) ΔPpredicted=ΔPmax×[MX]/[X]T where ΔPmax=0.135 (as determined by our initial fits to extract probe peptide KD,probe ), [X]T was the total probe concentration, and [MX] was the concentration of the probe/protein complex prior to adding competitor peptide. We calculated [MX] by: (8) [MX]=([X]T+[M]T+KD,probe)±([X]T+[M]T+KD,probe)^2−4[X]T[M]T/2 where [M]T was the total protein concentration.
# (§5) Prior to fitting a binding model to each curve, we converted it from polarization to fractional saturation. We did so by first fitting the single-site binding model to the data to obtain an estimate of the initial polarization (P0) for the protein/peptide pair. We then subtracted this value of P0 to obtain a baseline-subtracted polarization. We then divided the baseline-subtracted polarization by ΔPpredicted , yielding a fractional saturation (θ).
# (§6) We then fit a reduced form of the single-site binding model to the data: (9) θ=[protein]/[protein]+KD,apparent
# (§7) Finally, we corrected the resulting KD,apparent to account for the effect of the competitor peptide ([Hulme and Trevethick 2010]): (10) KD,peptide=KD,apparent/1+[X]T*(1−δ/2)/KD,probe+δ/(1−δ) where [X]T is the total probe peptide concentration and δ=[MX]/[X]T .
# hA6 (human S100A6) [2] = target: T2, hA6 (human S100A6) (Homo sapiens, UniProt P06703); experiment: as above; assay type: binding; details: displacement of 5FAM-labelled probe, 50 mM TES, 100 mM NaCl, 0.01% Tween-20, pH 7.4, 2.4-4.2 µM protein with equal probe, technical triplicate, corrected for probe
# T2 construct: His tag with TEV protease cleavage site (N, cleaved yes); made in house; host or cells: Rosetta E. coli (DE3) pLysS
# Source text: as §1, §2, §3, §4, §5, §6, §7
# [3] = system: ancA5/A6 (reconstructed last common ancestor of S100A5 and S100A6); experiment: Quantitative phage display enrichment with/without competitor peptide; assay type: binding; details: ancA5/A6 (aA5A6 in csv); E=−ln(cnon-competitor/ccompetitor); panning in 2 mM Ca2+, elution 5 mM EDTA; 20 μM competitor; E≤−1.5 taken as binder
# Source text: (§8) We next set out to measure the binding of S100 proteins to this library of random 12-mer peptides. The S100 peptide-binding interface is only exposed upon Ca^2+ -binding (fig. 1A); therefore, we performed phage panning experiments in the presence of saturating Ca^2+ and then eluted the bound phage using saturating ethylenediaminetetraacetic acid (EDTA) (fig. 2B). After this panning step, the population of enriched phage particles will be a mixture of those that bind at the site of interest and those that bind adventitiously (blue and purple phage, fig. 2B) ([Sidhu et al. 2000]; [Willats 2002]). To separate these populations, we repeated the panning experiment in the presence of a saturating concentration of competitor peptide known to bind at the site of interest ([…], fig. 2C) ([Wheeler et al. 2018]). This should lower the enrichment of peptides that bind at the site of interest, while allowing any adventitious interactions to remain. By comparing the competitor and noncompetitor pools, we can distinguish between specific and adventitious binders.
# (§9) After panning, we sequenced the resulting phage pools using Illumina sequencing. […] We estimated changes in the frequencies of peptides between samples with and without competitor peptide (supplementary fig. S3, Supplementary Material online). For each peptide, we determined E: (1) E=−ln(cnon-competitor/ccompetitor) where ccompetitor and cnon-competitor are the sequence counts for the peptide recovered from parallel Ca^2+/EDTA panning experiments done with and without competitor peptides.
# (§10) If E < 0, the competitor peptide interferes with the Ca^2+ -dependent enrichment of the peptide. […] If E > 0, the competitor peptide improves Ca^2+ -dependent enrichment of the phage peptide. This could occur if the phage peptide binds more favorably to the S100/competitor peptide complex than the S100 alone. […]
# (§11) Phage display experiments were performed using the PhD-12 peptide phage display kit (NEB). […] Eluates were tittered to quantify eluted phage as follows. […]
# hA5 (human S100A5) [4] = target: T1, hA5 (human S100A5); experiment: as above; assay type: binding; details: E=−ln(cnon-competitor/ccompetitor), panning in 2 mM Ca2+, elution 5 mM EDTA, 20 μM competitor, E≤−1.5 taken as binder
# Source text: as §8, §9, §10, §11
# hA6 (human S100A6) [5] = target: T2, hA6 (human S100A6); experiment: as above; assay type: binding; details: E=−ln(cnon-competitor/ccompetitor), panning in 2 mM Ca2+, elution 5 mM EDTA, 20 μM competitor, E≤−1.5 taken as binder
# Source text: as §8, §9, §10, §11
# hA5 = experiment: Fluorescence polarization, direct titration of probe peptide with protein; assay type: binding, human; details: 0.03 μM probe, 0 to ≈200 μM protein, 2 mM CaCl2, then 5 mM EDTA added
# Source text: as §1
# (§12) We fit the curve to a single-site binding model: (6) P([protein])∼ΔPmax[protein]/[protein]+KD,probe+P0 where P0 is the polarization of the peptide in the absence of protein, ΔPmax is the change in signal from unbound peptide to bound to the protein, and KD,probe is the probe dissociation constant. After recording the titration curve in the presence of CaCl2, we added 5 mM EDTA to all wells and remeasured the curve.
# (§13) Fig S6: Binding of /f_luorescent probe peptide is calcium dependent. Panel show measured /f_luorescence anisotropy for the peptide 5FAM- GFDWR […] in the presence of […]
# (§14) increasing protein concentration. Probe concentration was 0.03 uM. Proteins are hA5 (purple), hA6 (orange), ancA5/A6 (green), and human S100A9 (black). S100A9 is a negative control, because it is evolutionarily distant from hA5 and hA6 and would thus not be expec ted to bind to the probe […]
# hA6 = experiment: as above; assay type: binding, human; details: 0.03 μM probe, 0 to ≈200 μM protein, 2 mM CaCl2, then 5 mM EDTA added
# Source text: as §1, §12, §13, §14
# ancA5/A6 = experiment: as above; assay type: binding; details: 0.03 μM probe, 0 to ≈200 μM protein, 2 mM CaCl2, then 5 mM EDTA added
# Source text: as §1, §12, §13, §14
Substance,Kd (hA6 (human S100A6) [2]),Kd (hA5 (human S100A5) [1]),other results
SRQTTSTHEWVVGGSAE [phage_ctl_4],102 µM,,"Kd (KD,peptide) (hA5 (human S100A5) [1]): No model could be reliably fit"
"SGPSDWLHKGVLGGSAE [phage_ctl_9, phage display 12-mer peptide with C-terminal flank, ordered as synthetic test peptide]",,,E (enrichment) [3]: 5.052; E (enrichment) (hA5 (human S100A5) [4]): 0.5882; E (enrichment) (hA6 (human S100A6) [5]): 0.5131
5FAM-GFDWRWGMEALTGGGSAE [probe],,,calcium dependence of probe binding (hA5): bound in a calcium-dependent manner; calcium dependence of probe binding (hA6): bound in a calcium-dependent manner; calcium dependence of probe binding (ancA5/A6): bound in a calcium-dependent manner
EQPLLKYLQLMRGGSAE [phage_ctl_5],,85.8 µM,
EGLDLMSILELIGGSAE [phage_ctl_0],48.7 µM,47.2 µM,
GWLEQYFSRTADGGSAE [phage_ctl_2],14.6 µM,18.6 µM,
HVQWRDRNVIEWGGSAE [phage_ctl_6],,123 µM,
GEVTNYGYLVDQGGSAE [phage_ctl_7],42.7 µM,,
RHGFLQDILFKLGGSAE [phage_ctl_1],61.7 µM,36.4 µM,
SSSTYPGFRQSTGGSAE [phage_ctl_8],202 µM,,
